Results: US9913808B2, “Injectable pharmaceutical compositions for the treatment of joints” (priority 2010, dated 2018)

Tested on: synovial membrane of knee joints of rabbits
Test: Intra-articular injection into rabbit knee joints, histological scoring of the synovial membrane after 24 hours
Format: in vivo
Conditions: for Prevention of irritation on intra-articular injection (in words): glycerol and glucitol in comparable circumstances, data not shown
Method: After 24 hours the rabbits were sacrificed, the joints were removed and histological studies of the synnovial membrane were carried out. Each of the following histological findings was scored 0 to 3. a. Synovial lining hyperplasia b. Presence of Fibrin c. Inflammatory infiltration d. Necrosis […]

[1] = rabbit knee, intra-articular injection of the solution itself, sacrifice 24 h after injection
[2] = rabbit knee, intra-articular injection of the solution itself, sacrifice 24 h after injection, sulphate

With `OC[C@@H](O)[C@H](O)[C@@H](O)CO` [4.5% Xylitol in distilled water, Xylitol] the “Histological score of synovial membrane (synovial lining hyperplasia, fibrin, inflammatory infiltration, necrosis, each scored 0 to 3), Mean” value (shortened to “Histological score of synovial membrane”) [1] was 1.4.

With `OC[C@@H](O)[C@@H](O)[C@H](O)[C@@H](O)CO` [glucitol] the “Prevention of irritation on intra-articular injection (in words)” value (“Prevention of irritation” for short) (rabbit knee) was “lack of prevention of irritation”.

For “sodium Hyaluronate [1% sodium Hyaluronate in saline]”, the “Histological score of synovial membrane” value (rabbit, in vivo) was 1.0.

For `CCCCCCCCCCCCOS(=O)(=O)[O-].[Na+]` [0.2% SLS in saline, sodium lauryl sulphate], the “Histological score of synovial membrane” value [2] was 1.4.

For `OC[C@@H](O)[C@@H](O)[C@H](O)[C@H](O)CO` [5.4% Mannitol in distilled water, Mannitol], the “Histological score of synovial membrane” value [1] was 3.4 and the “Prevention of irritation” value (rabbit knee) was “does not prevent irritation”.

With `CCCCCCCCCCCCOS(=O)(=O)[O-].[Na+]` [0.5% SLS in saline (positive control), sodium lauryl sulphate] the “Histological score of synovial membrane” value (rabbit knee, intra-articular injection of the solution itself, sacrifice 24 h after injection, listed as 0.5% SLS in saline, sulphate) was 5.8 and the “Histological score of synovial membrane” value [2] was 5.8.

With `OCC(O)CO` [glycerol] the “Prevention of irritation” value (rabbit knee) was “lack of prevention of irritation”.
